In patent publication US11162944B2, “Compositions and methods” (priority 2015, dated 2021):
Read-outs that look alike come from different tables or passages of the source. Marks after values point to notes of the source that are not given here.

Tested on: biomarker (antibody) in serum samples from patients with symptoms of tuberculosis
Type: binding, human

CCCCCCCCCCCCCCCCCCCCCC[C@@H](C(=O)OC[C@H]1O[C@H](OC)[C@@H](O)[C@@H]1O)[C@H](O)CCCCCCCCCCCCCCCCC[C@@H]1C[C@@H]1CCCCCCCCCCCCCCCC[C@@H](OC)[C@@H](C)CCCCCCCCCCCCCCCCCC [Antigen A]
ELISA absorbance at 492 nm (serum sample 1 TB+): 0.28*
ELISA absorbance at 492 nm (serum sample 2 TB+): 0.29*
ELISA absorbance at 492 nm (serum sample 3 TB+): 0.30*
ELISA absorbance at 492 nm (serum sample 4 TB+): 0.50*
ELISA absorbance at 492 nm (serum sample 5 TB+): 0.28*
ELISA absorbance at 492 nm (serum sample 6 TB+): 0.28*
ELISA absorbance at 492 nm (serum sample 7 TB+): 0.93*
ELISA absorbance at 492 nm (serum sample 8 TB+): 0.47*
ELISA absorbance at 492 nm (serum sample 9 TB+): 0.29*
ELISA absorbance at 492 nm (serum sample 10 TB−): 0.21
ELISA absorbance at 492 nm (serum sample 11 TB−): 0.20
ELISA absorbance at 492 nm (serum sample 12 TB−): 0.18
ELISA absorbance at 492 nm (serum sample 13 TB−): 0.22
ELISA absorbance at 492 nm (serum sample 14 TB−): 0.49*
ELISA absorbance at 492 nm (serum sample 15 TB−): 0.23
ELISA absorbance at 492 nm (serum sample 16 TB−): 0.31*
ELISA absorbance at 492 nm (serum sample 17 TB−): 0.52*
ELISA absorbance at 492 nm (serum sample 18 TB−): 0.28*
ELISA absorbance at 492 nm (serum sample 19 TB−): 0.20
ELISA absorbance at 492 nm (serum sample 20 TB−): 0.34*
ELISA absorbance at 492 nm (serum sample 21 TB−): 0.47*
ELISA absorbance at 492 nm (serum sample 22 TB−): 0.23
ELISA absorbance at 492 nm (serum sample 23 TB−): 0.25
ELISA absorbance at 492 nm (serum sample 24 TB−): 0.29*
ELISA absorbance at 492 nm (serum sample 25 TB−): 0.18
ELISA absorbance at 492 nm (serum sample 26 TB−): 0.52*
ELISA absorbance at 492 nm (serum sample 27 TB−): 0.31*
ELISA absorbance at 492 nm (serum sample 28 TB−): 0.28*
ELISA absorbance at 492 nm (serum sample 29 TB−): 0.28*
ELISA absorbance at 492 nm (serum sample 30 TB−): 0.32*
ELISA absorbance at 492 nm (serum sample 31 TB−): 0.31*
ELISA absorbance at 492 nm (serum sample 32 TB−): 0.34*
ELISA absorbance at 492 nm (serum sample 33 TB−): 0.18
ELISA absorbance at 492 nm (serum sample 34 TB−): 0.39*
ELISA absorbance at 492 nm (serum sample 35 TB−): 0.23
ELISA absorbance at 492 nm (serum sample 36 TB−): 0.11
ELISA absorbance at 492 nm (serum sample 37 TB−): 0.28*
ELISA absorbance at 492 nm (serum sample 38 TB−): 0.29*
ELISA absorbance at 492 nm (serum sample 39 TB−): 0.21
ELISA absorbance at 492 nm (serum sample 40 TB−): 0.18
ELISA absorbance at 492 nm (serum sample 41 TB−): 0.18
ELISA absorbance at 492 nm (serum sample 42 TB−): 0.30*
ELISA absorbance at 492 nm (serum sample 43 TB−): 0.25
ELISA absorbance at 492 nm (serum sample 44 TB−): 0.41*
ELISA absorbance at 492 nm (serum sample 45 TB−): 0.33*
ELISA absorbance at 492 nm (serum sample 46 TB−): 0.13
ELISA absorbance at 492 nm (serum sample 47 TB−): 0.34*
ELISA absorbance at 492 nm (serum sample 48 TB−): 0.32*
ELISA absorbance at 492 nm (serum sample 49 TB−): 0.38*
ELISA absorbance at 492 nm (serum sample 50 TB−): 0.35*
ELISA absorbance at 492 nm (serum sample 51 TB−): 0.11
ELISA absorbance at 492 nm (serum sample 52 TB−): 0.21
ELISA absorbance at 492 nm (serum sample 53 TB−): 0.16
ELISA absorbance at 492 nm (serum sample 54 TB−): 0.17
ELISA absorbance at 492 nm (serum sample 55 TB−): 0.24
ELISA absorbance at 492 nm (serum sample 56 TB−): 0.68*
ELISA absorbance at 492 nm (serum sample 57 TB−): 0.25
ELISA absorbance at 492 nm (serum sample 58 TB−): 0.25
ELISA absorbance at 492 nm (serum sample 59 TB−): 0.33*
ELISA absorbance at 492 nm (serum sample 60 TB−): 0.37*
ELISA absorbance at 492 nm (serum sample 61 TB−): 0.52*
ELISA absorbance at 492 nm (serum sample 62 TB−): 0.19
ELISA absorbance at 492 nm (serum sample 63 TB−): 0.16
ELISA absorbance at 492 nm (serum sample 64 TB−): 2.50*
